According to patent US4921504A, “4-(N-ethyl-N-2-hydroxyethyl)-amino-1-(2 hydroxyethyl)-amino-2-nitrobenzene and compositions for dyeing hair containing the same” (Wella Aktiengesellschaft, priority 1984, dated 1990):
Converted amounts (≈) assume the structure as drawn. Where two headings read alike, the source gives them in different places.

Tests used:
mouse-lymphoma = test: mouse-lymphoma-assay; format: cell-based
human-lymphocyte = test: human-lymphocyte-test; format: cell-based
light genuiness = format: physicochemical; details: nitro dyes containing compound I
[1] = general toxicological safety; details: compared with compounds II through VI
Ames test = format: cell-based
solubility in water = format: physicochemical
Excerpt: In view of the foregoing, it was most surprising to find the blue nitro dye (compound I), being an isomer of compound III and a homologue of compound VI, has sufficiently different characteristics which cannot be derived from known compounds III, IV, V or VI. The dye (I) in accordance with the present invention has a solubility of about 1.0% in water which facilitates the acquisition of dark shades considerably, particularly, in comparison with compound III. […] Rather, an oil is formed from which the dye can later be supplied during the dyeing process. The alternative of redissolving formed crystals would take too much time and, as a result, such crystals would not, again, be available during the dyeing process.

[2] = storage stability of dyes; format: physicochemical; details: in dye compositions
LD50 (toxicity) = details: in vivo
yeast cell = test: yeast cell-mutagenity test; format: cell-based
Excerpt: 2. yeast cell-mutagenity test

[3] = prior-art compound, cited from earlier work
[4] = prior-art compound; cited from earlier work
[5] = prior-art compound; doubts recently raised regarding safe use; cited from earlier work
[6] = in water without also having to dissolve intermediaries (III)

CCN(CCO)c1ccc(NCCO)c([N+](=O)[O-])c1 [Compound I, 4-(N-ethyl-N-2'-hydroxyethyl)-amino-1-(2"-hydroxyethyl)-amino-2-nitrobenzene]
mutagenicity in mouse-lymphoma-assay (mouse-lymphoma): not mutagenic | mutagenicity in human-lymphocyte-test (human-lymphocyte): not mutagenic | light genuiness (light genuiness): very good | toxicological safety [1]: safe | mutagenicity in Ames test (Ames test): not mutagenic | skin compatibility (skin compatibility): good skin compatibility | behaviour when exceeding solubility (solubility in water; exceeding solubility, an oil is formed): does not crystallize | solubility (solubility in water; in water): ~10000 µg/mL (≈ 37.1 mM) | storage stability [2]: extraordinary | LD50 (LD50 (toxicity)): ~2000 mg/kg | mutagenicity in yeast cell-mutagenity test (yeast cell): not mutagenic

CCNc1ccc(N(CCO)CCO)cc1[N+](=O)[O-] [III]
solubility in water [3, 6]: below 0.15%

O=[N+]([O-])c1cc(N(CCO)CCO)ccc1NCCO [IV]
solubility in water [3]: high solubility

CN(CCO)c1ccc(NCCO)c([N+](=O)[O-])c1 [VI]
mutagenic effect in Ames test [4]: mutagenic effect

CNc1ccc(N(CCO)CCO)cc1[N+](=O)[O-] [V]
level of toxicity [5]: possibly unacceptable | solubility in water [3, 6]: about 0.5%
